Results taken from PubChem BioAssay (NCI).
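96-well plates; 48 h exposure; 5 concentrations. Endpoints by linear interpolation between flanking doses. Not reached: highest tested concentration assigned. The concentration for 50% growth inhibition is given as GI50. At the TGI there is no net growth.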

What was measured:
Assay in all cases: NCI-60 cell line screen, 48 h
SK-OV-3 ovarian = system: SK-OV-3 ovarian
NCI-H460 lung = system: NCI-H460 lung
IGROV1 ovarian = system: IGROV1 ovarian
A498 renal = system: A498 renal
HCC-2998 colon = system: HCC-2998 colon
UACC-257 melanoma = system: UACC-257 melanoma
M14 melanoma = system: M14 melanoma
SF-539 CNS = system: SF-539 CNS
OVCAR-8 ovarian = system: OVCAR-8 ovarian
HOP-92 NSCLC = system: HOP-92 NSCLC
786-0 renal = system: 786-0 renal
HT29 colon = system: HT29 colon
CAKI-1 renal = system: CAKI-1 renal
OVCAR-5 ovarian = system: OVCAR-5 ovarian
PC-3 prostate = system: PC-3 prostate
MDA-MB-231 breast = system: MDA-MB-231 breast
SW-620 colon = system: SW-620 colon
EKVX NSCLC = system: EKVX NSCLC
TK-10 renal = system: TK-10 renal
ACHN renal = system: ACHN renal
DU-145 prostate = system: DU-145 prostate
SNB-19 CNS = system: SNB-19 CNS
COLO 205 colon = system: COLO 205 colon
MCF7 breast = system: MCF7 breast
SK-MEL-28 melanoma = system: SK-MEL-28 melanoma
SN12C renal = system: SN12C renal
SK-MEL-2 melanoma = system: SK-MEL-2 melanoma
HCT-15 colon = system: HCT-15 colon
OVCAR-3 ovarian = system: OVCAR-3 ovarian
SNB-75 CNS = system: SNB-75 CNS
RXF 393 renal = system: RXF 393 renal
UACC-62 melanoma = system: UACC-62 melanoma
LOX IMVI melanoma = system: LOX IMVI melanoma
HCT-116 colon = system: HCT-116 colon
SF-268 CNS = system: SF-268 CNS
K-562 leukemia = system: K-562 leukemia
MDA-MB-435 = system: MDA-MB-435
MALME-3M melanoma = system: MALME-3M melanoma
NCI-H23 lung = system: NCI-H23 lung
UO-31 renal = system: UO-31 renal
HS 578T breast = system: HS 578T breast
OVCAR-4 ovarian = system: OVCAR-4 ovarian
SF-295 CNS = system: SF-295 CNS
CCRF-CEM leukemia = system: CCRF-CEM leukemia
KM12 colon = system: KM12 colon
U251 CNS = system: U251 CNS
NCI/ADR-RES ovarian = system: NCI/ADR-RES ovarian
BT-549 breast = system: BT-549 breast
A549 NSCLC = system: A549 NSCLC

SMILES: C=C(C)[C@@H]1CC[C@]2(C)[C@H](C=CC3=C4C[C@@](C)(CO)CC[C@]4(C)CC[C@]32C)[C@@]1(C)CCCN
- GI50 (SK-OV-3 ovarian): 1720 nM
- TGI (SK-OV-3 ovarian): 3170 nM
- GI50 (NCI-H460 lung): 1710 nM
- TGI (NCI-H460 lung): 3330 nM
- GI50 (IGROV1 ovarian): 1500 nM
- TGI (IGROV1 ovarian): 2950 nM
- GI50 (A498 renal): 1540 nM
- TGI (A498 renal): 2900 nM
- GI50 (HCC-2998 colon): 793 nM
- TGI (HCC-2998 colon): 2140 nM
- GI50 (UACC-257 melanoma): 1870 nM
- TGI (UACC-257 melanoma): 3660 nM
- GI50 (M14 melanoma): 1690 nM
- TGI (M14 melanoma): 3340 nM
- GI50 (SF-539 CNS): 1730 nM
- TGI (SF-539 CNS): 3130 nM
- GI50 (OVCAR-8 ovarian): 2130 nM
- TGI (OVCAR-8 ovarian): 4610 nM
- GI50 (HOP-92 NSCLC): 1480 nM
- TGI (HOP-92 NSCLC): 3210 nM
- GI50 (786-0 renal): 1680 nM
- TGI (786-0 renal): 3440 nM
- GI50 (HT29 colon): 1630 nM
- TGI (HT29 colon): 3280 nM
- GI50 (CAKI-1 renal): 1520 nM
- TGI (CAKI-1 renal): 2850 nM
- GI50 (OVCAR-5 ovarian): 1710 nM
- TGI (OVCAR-5 ovarian): 3090 nM
- GI50 (PC-3 prostate): 1700 nM
- TGI (PC-3 prostate): 3280 nM
- GI50 (MDA-MB-231 breast): 1770 nM
- TGI (MDA-MB-231 breast): 3270 nM
- GI50 (SW-620 colon): 1560 nM
- TGI (SW-620 colon): 3040 nM
- GI50 (EKVX NSCLC): 1600 nM
- TGI (EKVX NSCLC): 3100 nM
- GI50 (TK-10 renal): 1780 nM
- TGI (TK-10 renal): 3360 nM
- GI50 (ACHN renal): 1760 nM
- TGI (ACHN renal): 3140 nM
- GI50 (DU-145 prostate): 1720 nM
- TGI (DU-145 prostate): 3150 nM
- GI50 (SNB-19 CNS): 1750 nM
- TGI (SNB-19 CNS): 3170 nM
- GI50 (COLO 205 colon): 1490 nM
- TGI (COLO 205 colon): 3230 nM
- GI50 (MCF7 breast): 1600 nM
- TGI (MCF7 breast): 3400 nM
- GI50 (SK-MEL-28 melanoma): 1820 nM
- TGI (SK-MEL-28 melanoma): 3250 nM
- GI50 (SN12C renal): 1640 nM
- TGI (SN12C renal): 3150 nM
- GI50 (SK-MEL-2 melanoma): 1920 nM
- TGI (SK-MEL-2 melanoma): 3580 nM
- GI50 (HCT-15 colon): 1530 nM
- TGI (HCT-15 colon): 2920 nM
- GI50 (OVCAR-3 ovarian): 1480 nM
- TGI (OVCAR-3 ovarian): 2850 nM
- GI50 (SNB-75 CNS): 1530 nM
- TGI (SNB-75 CNS): 2970 nM
- GI50 (RXF 393 renal): 1620 nM
- TGI (RXF 393 renal): 3070 nM
- GI50 (UACC-62 melanoma): 1780 nM
- TGI (UACC-62 melanoma): 3170 nM
- GI50 (LOX IMVI melanoma): 1370 nM
- TGI (LOX IMVI melanoma): 2700 nM
- GI50 (HCT-116 colon): 1690 nM
- TGI (HCT-116 colon): 3210 nM
- GI50 (SF-268 CNS): 1610 nM
- TGI (SF-268 CNS): 3250 nM
- GI50 (K-562 leukemia): 1800 nM
- TGI (K-562 leukemia): 5040 nM
- GI50 (MDA-MB-435): 1780 nM
- TGI (MDA-MB-435): 3200 nM
- GI50 (MALME-3M melanoma): 1460 nM
- TGI (MALME-3M melanoma): 2910 nM
- GI50 (NCI-H23 lung): 1770 nM
- TGI (NCI-H23 lung): 3320 nM
- GI50 (UO-31 renal): 1340 nM
- TGI (UO-31 renal): 2650 nM
- GI50 (HS 578T breast): 1800 nM
- TGI (HS 578T breast): 4070 nM
- GI50 (OVCAR-4 ovarian): 1530 nM
- TGI (OVCAR-4 ovarian): 3090 nM
- GI50 (SF-295 CNS): 1780 nM
- TGI (SF-295 CNS): 3210 nM
- GI50 (CCRF-CEM leukemia): 2120 nM
- TGI (CCRF-CEM leukemia): 5560 nM
- GI50 (KM12 colon): 1600 nM
- TGI (KM12 colon): 3020 nM
- GI50 (U251 CNS): 1640 nM
- TGI (U251 CNS): 3320 nM
- GI50 (NCI/ADR-RES ovarian): 1740 nM
- TGI (NCI/ADR-RES ovarian): 3370 nM
- GI50 (BT-549 breast): 1630 nM
- TGI (BT-549 breast): 3070 nM
- GI50 (A549 NSCLC): 1600 nM
- TGI (A549 NSCLC): 3180 nM
